According to patent US20150342195A1, “ANTI-MICROBIAL COMPOSITIONS, PREPARATIONS, METHODS, AND USES” (MYCO SCIENCES LIMITED, priority 2014, published 2015):
≈ marks a conversion by molar mass, not a printed value.

How the values were obtained:
Assay type in all cases: cell-based
[1] = tested on: Pseudomonas syringae (pv. tomato DC3000); test: Bacterial microplate culture (resazurin MIC); conditions: 24 hours at 28° C.; highest concentration 400 mg/L (1% of stock solutions)
[2] = tested on: Xanthomonas campestris (strain Race 5 from brassica); test: Bacterial microplate culture (resazurin MIC); conditions: 24 hours at 28° C.; highest concentration 400 mg/L (1% of stock solutions)
plant pathogenic fungi = test: organism not typed; conditions: summary of TABLE 8
Trichophyton rubrum = test: Fungal growth inhibition assay with Trichophyton rubrum; conditions: PDA, 33° C., 7 days; for T. rubrum IC50 values: Concentration: Cu—Zn#12: 50% each of elemental copper and zinc
Description: To assess the effects of compositions on fungal growth, 10 microliters of the test compositions diluted in sterile distilled water were placed in the wells of a 12-well tissue culture plate and 1 milliliter of liquid PDA was added by pipette to each well. Where multiple samples were added to each well, the 10 microliter drops were kept separate until they were mixed by the addition of hot liquid PDA and the plate was then agitated to evenly distribute the test composition(s) evenly through the agar (distilled water was used as vehicle control) and then the agar was allowed to set. For most strains (see TABLE 2), plugs of agar containing fungal hyphae (2 to 3 millimeters in diameter) from the edge of an established fungal culture were carefully cut out using a scalpel and inserted into holes cut in the centre of the agar in each well of the 12-well plate. With B. cinerea and U. maydis, mature cultures were washed with 3 ml of sterile distilled water and the spore suspensions obtained were adjusted to O.D. (at 600 nanometers) of 1.0 and 1.5, respectively. A small hole (˜1 millimeter) was made in the center of the PDA in each well with a yellow pipette tip and 1.5 microliters of spore suspension was carefully pipetted into the hole. […] To assess the effects of compositions on fungal growth in all experiments, the diameter of the hyphal growth was measured twice at a 90° angle using a ruler and the average diameter in millimeters was calculated. If no fungal growth could be detected by eye, the cultures were observed by phase microscopy (40×) to confirm that there was no growth (NG).
A clinical isolate of T. rubrum (strain 7107996; Phylum: Acomycota) was kindly provided by Dr. Richard Barton, Leeds University, UK. The growth assays with T. rubrum were as described in EXAMPLE 1, except this strain was cultured at 33° C. on PDA for 6 or 7 days when growth was assessed. T. rubrum cultures were maintained on Sabouraud dextrose agar at 33° C.
FIG. 8 is a graph depicting the effects of selected compositions and compounds on the growth of Trichophyton rubrum. The culture period was 7 days. Growth in the control cultures was 20±0 millimeters (mean±SD for 2 experiments).

Aspergillus niger = test: Fungal growth inhibition assay (hyphal growth diameter on PDA); conditions: for IC50: % of composition stock solution / IC50: concentration of copper or zinc in the composition, or phosphorous acid: PDA, 6 days; for IC50: concentration of copper or zinc in the composition, or phosphorous acid: Cu—Zn#12: 50% each of elemental copper and zinc; for Potassium sorbate synergy with composition/compound: potassium sorbate and composition/compound both at their IC50 concentrations
[3] = tested on: Ralstonia solanacearum (strain PSS4 from tomato); test: microbe, parasite or virus in culture; conditions: 24 hours at 28° C.; highest concentration 400 mg/L (1% of stock solutions)
Botrytis cinerea = test: Fungal growth inhibition assay (hyphal growth diameter on PDA); conditions: for IC50: % of composition stock solution / IC50: concentration of copper or zinc in the composition, or phosphorous acid: PDA, 2 days; for IC50: concentration of copper or zinc in the composition, or phosphorous acid: Cu—Zn#12: 50% each of elemental copper and zinc; for Potassium sorbate synergy with composition/compound: potassium sorbate and composition/compound both at their IC50 concentrations
Magnaporthe oryzae = test: microbe, parasite or virus in culture; conditions: PDA; for IC50: % of composition stock solution / IC50: concentration of copper or zinc in the composition, or phosphorous acid: 4 days; for IC50: concentration of copper or zinc in the composition, or phosphorous acid: Cu—Zn#12: 50% each of elemental copper and zinc
Fusarium graminearum = test: microbe, parasite or virus in culture; conditions: for IC50: % of composition stock solution / IC50: concentration of copper or zinc in the composition, or phosphorous acid: PDA, 3 days; for IC50: concentration of copper or zinc in the composition, or phosphorous acid: Cu—Zn#12: 50% each of elemental copper and zinc; for Potassium sorbate synergy with composition/compound: potassium sorbate and composition/compound both at their IC50 concentrations
Ustilago maydis = test: Fungal growth inhibition assay (hyphal growth diameter on PDA); design: Potassium sorbate synergy with composition/compound: key to the marks not given beside the values; conditions: for IC50: % of composition stock solution / IC50: concentration of copper or zinc in the composition, or phosphorous acid: PDA, 5 days; for IC50: concentration of copper or zinc in the composition, or phosphorous acid: Cu—Zn#12: 50% each of elemental copper and zinc; for Potassium sorbate synergy with composition/compound: potassium sorbate and composition/compound both at their IC50 concentrations
Rhizoctonia solani = test: as above; conditions: for IC50: % of composition stock solution / IC50: concentration of copper or zinc in the composition, or phosphorous acid: PDA, 1 day; for IC50: concentration of copper or zinc in the composition, or phosphorous acid: Cu—Zn# compositions: copper plus zinc; for Potassium sorbate synergy with composition/compound: potassium sorbate and composition/compound both at their IC50 concentrations
Alternaria alternata = test: as above; conditions: PDA, 2 days; for IC50: concentration of copper or zinc in the composition, or phosphorous acid: Cu—Zn#12: 50% each of elemental copper and zinc
[4] = tested on: Xanthomonas oryzae (strain Gx0372); test: microbe, parasite or virus in culture; conditions: 24 hours at 28° C.; highest concentration 400 mg/L (1% of stock solutions)

Row | Compound | MIC [1] [mg/L] | MIC [2] [mg/L] | fungal strains (of those tested) showing strong synergy with KS (plant pathogenic fungi) | T. rubrum IC50 values: % of stock solution (Trichophyton rubrum) | T. rubrum IC50 values: Concentration (Trichophyton rubrum) [mg/L] | IC50: % of composition stock solution (Aspergillus niger) | IC50: concentration of copper or zinc in the composition, or phosphorous acid (Aspergillus niger) [mg/L] | MIC [3] [mg/L] | IC50: % of composition stock solution (Botrytis cinerea) | IC50: concentration of copper or zinc in the composition, or phosphorous acid (Botrytis cinerea) [mg/L] | Potassium sorbate synergy with composition/compound (Botrytis cinerea) | IC50: % of composition stock solution (Magnaporthe oryzae) | IC50: concentration of copper or zinc in the composition, or phosphorous acid (Magnaporthe oryzae) [mg/L] | IC50: % of composition stock solution (Fusarium graminearum) | IC50: concentration of copper or zinc in the composition, or phosphorous acid (Fusarium graminearum) [mg/L] | IC50: % of composition stock solution (Ustilago maydis) | IC50: concentration of copper or zinc in the composition, or phosphorous acid (Ustilago maydis) [mg/L] | IC50: % of composition stock solution (Rhizoctonia solani) | IC50: concentration of copper or zinc in the composition, or phosphorous acid (Rhizoctonia solani) [mg/L] | IC50: % of composition stock solution (Alternaria alternata) | further results
1 | O=S(=O)([O-])[O-].[Cu+2] [Copper sulfate, copper sulfate] | 100 | 50 | 6/7 | 0.20 % of stock solution | 80 | 0.19 % of composition stock solution | 76 | 50 | 0.46 % of composition stock solution | 184 | ++ | 0.51 % of composition stock solution | 204 | 0.22 % of composition stock solution | 88 | 0.43 % of composition stock solution | 172 | 0.39 % of composition stock solution | 156 | 0.44 % of composition stock solution | IC50: % of composition stock solution (Magnaporthe oryzae; listed as copper sulfate): 0.51 % of composition stock solutio; IC50: % of composition stock solution (Fusarium graminearum; listed as copper sulfate): 0.22 % of composition stock solutio; IC50: concentration of copper or zinc in the composition, or phosphorous acid (Alternaria alternata): 176 mg/L; MIC [4]: 50 mg/L
2 | OP(O)O [Phosphorous acid, phosphorous acid] | 200 (≈ 2.44 mM) | >400 | 4/7 | 0.05 % of stock solution | 20 | 0.19 % of composition stock solution | 76 | 100 (≈ 1.22 mM) | 0.63 % of composition stock solution | 252 | + | 0.57 % of composition stock solution | 228 | 0.39 % of composition stock solution | 156 | 0.75 % of composition stock solution | 300 | 0.64 % of composition stock solution | 256 | 0.51 % of composition stock solution | Potassium sorbate synergy with composition/compound (Aspergillus niger): +; IC50: % of composition stock solution (Magnaporthe oryzae; listed as phosphorous acid): 0.57 % of composition stock solutio; IC50: % of composition stock solution (Fusarium graminearum; listed as phosphorous acid): 0.78 % of composition stock solutio; Potassium sorbate synergy with composition/compound (Ustilago maydis): ++; IC50: concentration of copper or zinc in the composition, or phosphorous acid (Alternaria alternata): 204 mg/L; MIC [4]: 400 mg/L (≈ 4.88 mM)
3 | O=S(=O)([O-])[O-].[Zn+2] [Zinc sulfate, zinc sulfate] | 400 | >400 | 2 strains | 0.25 % of stock solution | 100 | 0.25 % of composition stock solution | 100 | >400 | 0.52 % of composition stock solution | 208 | + | 0.48 % of composition stock solution | 192 | 0.66 % of composition stock solution | 264 | 0.56 % of composition stock solution | 224 | 0.33 % of composition stock solution | 132 | 0.62 % of composition stock solution | Potassium sorbate synergy with composition/compound (Aspergillus niger): +; IC50: % of composition stock solution (Magnaporthe oryzae; listed as zinc sulfate): 0.48 % of composition stock solutio; IC50: % of composition stock solution (Fusarium graminearum; listed as zinc sulfate): 0.66 % of composition stock solutio; Potassium sorbate synergy with composition/compound (Fusarium graminearum): +; Potassium sorbate synergy with composition/compound (Ustilago maydis): ++; Potassium sorbate synergy with composition/compound (Rhizoctonia solani): +; IC50: concentration of copper or zinc in the composition, or phosphorous acid (Alternaria alternata): 248 mg/L; MIC [4]: 400 mg/L
4 | Potassium phosphite |  |  | 2 strains |  |  | 0.19 % of composition stock solution |  |  | 0.67 % of composition stock solution |  | + | 3.7 % of composition stock solution |  | 0.78 % of composition stock solution |  | 1.3 % of composition stock solution |  | 0.93 % of composition stock solution |  | 1.1 % of composition stock solution | Potassium sorbate synergy with composition/compound (Aspergillus niger): +; IC50 fold higher than the Cu#, Cu—Zn# or Zn# compositions (Magnaporthe oryzae): 13.7 fold; Potassium sorbate synergy with composition/compound (Fusarium graminearum): ++; Potassium sorbate synergy with composition/compound (Ustilago maydis): ++; Potassium sorbate synergy with composition/compound (Rhizoctonia solani): ++
